From patent publication US20100298299A1, “NON-PEPTIDE DERIVATIVES AS BRADYKININ B1 ANTAGONISTS” (priority 2007, published 2010) come the findings set out here.

Assay [1] concerns the target T1, human recombinant bradykinin B1 receptor (Homo sapiens, UniProt P46663).
T1 construct: purchased Euroscreen ES-091; host or cells: CHO cells
T1 sequence (P46663 1-353): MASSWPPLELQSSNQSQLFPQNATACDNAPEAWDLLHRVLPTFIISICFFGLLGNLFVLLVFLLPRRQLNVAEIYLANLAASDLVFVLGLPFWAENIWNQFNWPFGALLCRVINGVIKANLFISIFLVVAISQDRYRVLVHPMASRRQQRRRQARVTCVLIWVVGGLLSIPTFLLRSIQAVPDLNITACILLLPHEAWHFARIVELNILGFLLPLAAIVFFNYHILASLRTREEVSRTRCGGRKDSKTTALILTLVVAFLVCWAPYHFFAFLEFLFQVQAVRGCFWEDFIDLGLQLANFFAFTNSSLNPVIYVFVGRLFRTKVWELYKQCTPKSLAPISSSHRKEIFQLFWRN
Briefly: Human recombinant bradykinin B1 receptor binding. The following applies: CHO cell membranes, [3H]-[Des-Arg10] Kallidin radioligand; read-out: B1 binding. The protocol:
1. Human Recombinant Bradykinin B1 Receptor Binding
Binding assays were carried out on human recombinant bradykinin) receptors (expressed in CHO cells) according to the Euroscreen Technical Data Sheet (Cat. No.: ES-091). 20 μg protein/tube was incubated with [3,4-prolyl-3,4-^3H(N)]-[Des-Arg^10] Kallidin as radioligand. Non specific binding was determined in the presence of 10 μM Lys-des-Arg^9-Bradykinin. The final incubation volume was 250 μl. Samples were incubated for 15 min. at 25° C. then were rapidly vacuum filtered through GF/B filters presoaked for at least 1 h in 0.5% PEI. Radioactivity was determined by liquid scintillation spectroscopy.

Assay [2] deals with T2, recombinant human B1 receptors (Homo sapiens, UniProt P46663).
T2 construct: host or cells: CHO (CHO-B1)
T2 sequence (P46663 1-353): T1 sequence (P46663 1-353)
Briefly: Functional assay: antagonist potency by cytosolic calcium measurement in CHO-B1 cells. The settings on record: CHO-B1 cells, inhibition of LysDABK (EC80)-evoked [Ca2+]i elevation; read-out: B1 func. Format: cell-based. The protocol: Assessment of Antagonist Potency at B1 and B2 Receptors In Vitro by Measurement of Cytosolic Calcium Ion Concentration with a Plate Reader Fluorimeter in Cells Expressing Recombinant Human B1 or B2 Receptors
Chinese hamster ovary (CHO) cells stably expressing recombinant human B1 (CHO-B1, Euroscreen) or B2 (CHO-B2, Perkin-Elmer) receptors were cultured in Dulbecco's Modified Eagle's Medium (DMEM) containing 10% Fetal Calf Serum (FCS), 100 U/ml penicillin, 0.1 mg/ml streptomycin, 0.25 μg/ml amphotericin B, 1% Minimum Essential Medium Eagle (MEM), non essential amino acid solution, 600 μg/ml G418, 1% pyruvate (for the B2 cell line). Cells were kept at 37° C. in a humidified incubator in an atmosphere of 5% CO2/95% air and were passaged 1:4 three times a week. Cells were plated at 1.5−2.5×10^4 cell/well on standard 96-well microplates, measurements of cytosolic calcium ion concentration ([Ca^2+]i) were carried out 1-2 days after cell plating.
Measurements of [Ca^2+]i were carried out on CHO-B1 and CHO-B2 cells stably expressing human B1 and B2 receptors, respectively. Cells were grown in standard 96-well microplates and before the measurement were loaded with a fluorescent Ca^2+-sensitive dye, fluo-4/AM (2 μM): after removing the culture medium the dye was added to the cells (dissolved in assay buffer: 145 mM NaCl, 5 mM KCl, 2 mM MgCl2, 2 mM CaCl2, 10 mM HEPES, 20 mM D-glucose, 2 mM probenecid, 100 μl/well) and cells were incubated at 37° C. in a humidified incubator in an atmosphere of 5% CO2/95% air for 40-120 min. To stop dye loading cells were washed twice with assay buffer. After washing, various concentrations of the test compounds (diluted in extracellular medium from a DMSO stock solution, final DMSO concentration was <0.1%) or buffer were added to each well depending on the experimental setup. After incubation at 37° C. for 20-25 min. baseline and agonist-evoked changes of [Ca^2+]i were measured column by column with a plate reader fluorimeter (Fluoroskan Ascent, Labsystems). Excitation and detection of emission was carried out from the bottom of the plate. Filters used for Fluo-4: excitation filter—485 nm, emission filter—538 nm. The whole measurement process was performed at 37° C. and was controlled by custom software. Inhibitory potency of the test compounds was assessed by measuring the reduction in the agonist-evoked [Ca^2+]i-elevation in the presence of different concentrations of the compounds. The agonists were LysDABK for CHO-B1, and bradykinin for CHO-B2 cells. Agonists were applied at an EC80 concentration, the EC80-values were derived from daily determined dose-response curves. Fluorescence data were expressed as ΔF/F (fluorescence change normalized to baseline). All treatments on a single plate were measured in multiple wells. Data from all wells with the same treatment were averaged and the average values were used for analysis. Inhibitory potency of a compound at a single concentration point was expressed as percent inhibition of the control agonist response. Sigmoidal concentration-inhibition curves were fitted to the data (derived from at least three independent experiments) and IC50-values were determined as the concentration that produces half of the maximal inhibition caused by the compound.

Where only a bound is given, the exact number is not on record here.

`C[C@@H](NC(=O)c1ccc(S(=O)(=O)Nc2ccccc2Oc2ccccc2)cc1)C(=O)N1CCC(CCN2CCCC2)CC1` [Example 1, (R)—N-{1-Methyl-2-oxo-2-[4-(2-pyrrolidin-1-yl-ethyl)-piperidin-1-yl]-ethyl}-4-(2-phenoxy-phenylsulfamoyl)-benzamide]: the Ki in assay [1] is under 0.02 µM. In addition, the IC50 in assay [2] was under 0.02 µM.

For `O=C(NCC(=O)N1CCC(CCN2CCCC2)CC1)c1ccc(S(=O)(=O)Nc2ccccc2Sc2ccccc2)cc1` [Example 2, N-{2-oxo-2-[4-(2-pyrrolidin-1-yl-ethyl)-piperidin-1-yl]-ethyl}-4-(2-phenylsulfanyl-Phenylsulfamoyl)-benzamide], in assay [1], the Ki is under 0.02 µM. In addition, the IC50 in assay [2] is under 0.02 µM.

For the compound `O=C(NCC(=O)N1CCC(N2CCCC2)CC1)c1ccc(S(=O)(=O)Nc2ccccc2Sc2ccccc2)cc1` [Example 3, N-[2-Oxo-2-(4-pyrrolidin-1-yl-piperidin-1-yl)-ethyl]-4-(2-phenylsulfanyl-phenylsulfamoyl)-benzamide], the Ki in assay [1] was under 0.02 µM. The IC50 in assay [2] was under 0.02 µM.

For `CN(C)CCN1CCN(C(=O)CNC(=O)c2ccc(S(=O)(=O)Nc3ccccc3Sc3ccccc3)cc2)CC1` [Example 4, N-{2-[4-(2-Dimethylamino-ethyl)-piperazin-1-yl]-2-oxo-ethyl}-4-(2-phenylsulfanyl-phenylsulfamoyl)-benzamide], the Ki in assay [1] lay in the range of 0.02 to 0.1 µM. Further, the IC50 in assay [2] lay in the range of 0.02 to 0.1 µM.

Turning to `O=C(NCC(=O)N1CCN(CCCN2CCCC2)CC1)c1ccc(S(=O)(=O)Nc2ccccc2Sc2ccccc2)cc1` [Example 5, N-{2-Oxo-2-[4-(3-pyrrolidin-1-yl-propyl)-piperazin-1-yl]-ethyl}-4-(2-phenylsulfanyl-phenylsulfamoyl)-benzamide], the Ki in assay [1] was 0.02 to 0.1 µM. The IC50 in assay [2] lay in the range of 0.02 to 0.1 µM.

Consider `CN(C)CCCN1CCN(C(=O)CNC(=O)c2ccc(S(=O)(=O)Nc3ccccc3Sc3ccccc3)cc2)CC1` [Example 6, N-{2-[4-(3-Dimethylamino-propyl)-piperazin-1-yl]-2-oxo-ethyl}-4-(2-phenylsulfanyl-phenylsulfamoyl)-benzamide], for which the Ki in assay [1] is 0.02 to 0.1 µM. The IC50 in assay [2] was 0.02 to 0.1 µM.

In the case of `O=C(NCC(=O)N1CCCN(CCCN2CCCC2)CC1)c1ccc(S(=O)(=O)Nc2ccccc2Sc2ccccc2)cc1` [Example 7, N-{2-Oxo-2-[4-(3-pyrrolidin-1-yl-propyl)-[1,4]diazepan-1-yl]-ethyl}-4-(2-phenylsulfanyl-phenylsulfamoyl)-benzamide], in assay [1], the Ki was in the range of 0.02 to 0.1 µM. Moreover, the IC50 in assay [2] fell in the range of 0.02 to 0.1 µM.

As to `CN1CCCC(CN2CCN(C(=O)CNC(=O)c3ccc(S(=O)(=O)Nc4ccccc4Sc4ccccc4)cc3)CC2)C1` (stereo not drawn) [Example 8, N-{2-[4-(1-Methyl-piperidin-3-ylmethyl)-piperazin-1-yl]-2-oxo-ethyl}-4-(2-phenylsulfanyl-phenylsulfamoyl)-benzamide], the Ki in assay [1] lay within 0.02 to 0.1 µM. Also, the IC50 in assay [2] is 0.02 to 0.1 µM.

Turning to `O=C(NCC(=O)N1CCN(CCN2CCOCC2)CC1)c1ccc(S(=O)(=O)Nc2ccccc2Sc2ccccc2)cc1` [Example 9, N-{2-[4-(2-Morpholin-4-yl-ethyl)-piperazin-1-yl]-2-oxo-ethyl}-4-(2-phenylsulfanyl-phenylsulfamoyl)-benzamide], in assay [1], the Ki was in the range of 0.02 to 0.1 µM. Besides, the IC50 in assay [2] is 0.02 to 0.1 µM.

Turning to `C[C@H](NC(=O)c1ccc(S(=O)(=O)Nc2ccccc2Oc2ccccc2)cc1)C(=O)N1CCC(CCN2CCCC2)CC1` [Example 26, (S)—N-{1-Methyl-2-oxo-2-[4-(2-pyrrolidin-1-yl-ethyl)-piperidin-1-yl]-ethyl}-4-(2-phenoxy-phenylsulfamoyl)-benzamide], the Ki in assay [1] was under 0.02 µM. Moreover, the IC50 in assay [2] is under 0.02 µM.

`O=C(N[C@H](CO)C(=O)N1CCC(CCN2CCCC2)CC1)c1ccc(S(=O)(=O)Nc2ccccc2Oc2ccccc2)cc1` [Example 27, (R)—N-{1-Hydroxymethyl-2-oxo-2-[4-(2-pyrrolidin-1-yl-ethyl)-piperidin-1-yl]-ethyl}-4-(2-phenoxy-phenylsulfamoyl)-benzamide]: the Ki in assay [1] is under 0.02 µM. In assay [2], the IC50 is under 0.02 µM.

For the compound `O=C(N[C@H](Cc1ccc(O)cc1)C(=O)N1CCC(O)CC1)c1ccc(S(=O)(=O)Nc2ccccc2Oc2ccccc2)cc1` [Example 29, (R)—N-[1-(4-Hydroxy-benzyl)-2-(4-hydroxy-piperidin-1-yl)-2-oxo-ethyl]-4-(2-phenoxy-phenylsulfamoyl)-benzamide], in assay [1], the Ki was under 0.02 µM. Besides, in assay [2], the IC50 was under 0.02 µM.

`O=C(N[C@H](Cc1ccc(O)cc1)C(=O)N1CCC(CO)CC1)c1ccc(S(=O)(=O)Nc2ccccc2Oc2ccccc2)cc1` [Example 30, (R)—N-[1-(4-Hydroxy-benzyl)-2-(4-hydroxymethyl-piperidin-1-yl)-2-oxo-ethyl]-4-(2-phenoxy-phenylsulfamoyl)-benzamide]: in assay [1], the Ki is under 0.02 µM. Moreover, the IC50 in assay [2] is under 0.02 µM.

As to `O=C(N[C@H](Cc1ccc(O)cc1)C(=O)N1CCC(CCN2CCCC2)CC1)c1ccc(S(=O)(=O)Nc2ccccc2Oc2ccccc2)cc1` [Example 31, (R)—N-{1-(4-Hydroxy-benzyl)-2-oxo-2-[4-(2-pyrrolidin-1-yl-ethyl)-piperidin-1-yl]-ethyl}-4-(2-phenoxy-phenylsulfamoyl)-benzamide], the Ki in assay [1] is under 0.02 µM. The IC50 in assay [2] is under 0.02 µM.

Turning to `O=C(N[C@@H](Cc1ccc(O)cc1)C(=O)N1CCC(CCN2CCCC2)CC1)c1ccc(S(=O)(=O)Nc2ccccc2Oc2ccccc2)cc1` [Example 32, (S)—N-{1-(4-Hydroxy-benzyl)-2-oxo-2-[4-(2-pyrrolidin-1-yl-ethyl)-piperidin-1-yl]-ethyl}-4-(2-phenoxy-phenylsulfamoyl)-benzamide], the Ki in assay [1] is under 0.02 µM. Further, the IC50 in assay [2] is under 0.02 µM.

On to `O=C(N[C@@H](Cc1ccc(O)cc1)C(=O)N1CCC(N2CCCC2)CC1)c1ccc(S(=O)(=O)Nc2ccccc2Oc2ccccc2)cc1` [Example 33, (S)—N-[1-(4-Hydroxy-benzyl)-2-oxo-2-(4-pyrrolidin-1-yl-piperidin-1-yl)-ethyl]-4-(2-phenoxy-phenylsulfamoyl)-benzamide], for which, in assay [1], the Ki is under 0.02 µM. In addition, the IC50 in assay [2] is under 0.02 µM.

As to `O=C(N[C@@H](Cc1ccc(O)cc1)C(=O)N1CCC(O)CC1)c1ccc(S(=O)(=O)Nc2ccccc2Oc2ccccc2)cc1` [Example 34, (S)—N-[1-(4-Hydroxy-benzyl)-2-(4-hydroxy-piperidin-1-yl)-2-oxo-ethyl]-4-(2-phenoxy-phenylsulfamoyl)-benzamide], in assay [1], the Ki was under 0.02 µM. Moreover, the IC50 in assay [2] was under 0.02 µM.

Regarding `O=C(N[C@@H](Cc1ccc(O)cc1)C(=O)N1CCC(CCO)CC1)c1ccc(S(=O)(=O)Nc2ccccc2Oc2ccccc2)cc1` [Example 35, (S)—N-{1-(4-Hydroxy-benzyl)-2-[4-(2-hydroxy-ethyl)-piperidin-1-yl]-2-oxo-ethyl}-4-(2-phenoxy-phenylsulfamoyl)-benzamide], the Ki in assay [1] is under 0.02 µM. Moreover, the IC50 in assay [2] is under 0.02 µM.
